Structures can show the parent of a compound that is named as a salt.
Legend:
[1] = test system: β-catenin-driven (LEF/TCF) transcriptional activity; assay: LEF/TCF reporter assay; format: cell-based, human; conditions: CD34^+/CD38^− CML and 32D-BCR/ABL cells
Protocol: LEF/TCF reporter assay. CD34+/CD38− CML cells were transduced with pBAR or pfuBAR (negative control) ®-catenin lentiviral reporter constructs (54), puromycin-selected and treated with the indicated drugs. Luciferase was measured using the Bright-Glo Luciferase system (Promega).

CML cells = assay: Long term culture-initiating cell (LTC-IC) assay; format: cell-based, human; conditions: drug during first week of 6-week culture, vs untreated
Protocol: (§1) Long term culture-initiating cell (LTC-IC) and Colony-forming cell (CFC)/replating assays. 2×10^6 mononuclear CML cells were cultured with a 1:1 mixture of irradiated (80 Gy) IL-3/G-CSF-producing M2-10B4 and IL-3/KL-producing SI/SI murine fibroblasts in MyeloCult H5100 (StemCell Technologies) supplemented with hydrocortisone. Drugs were present during the first week of culture. Medium was replaced after 7 days, followed by weekly half-medium changes. After 6 weeks, adherent and floating cells were harvested and 5×10^4 cells plated into MethoCult H4435. LTC-IC-derived colonies were scored after 14 days. For CFC/replating, individual 14-day colonies from 10^3-10^5 CD34+/CD38− CML or 0.2×10^3-10^3 leukemic LSK cells plated in 0.9% H4435 or M3234 MethoCult, respectively, containing KL, G-CSF, GM-CSF, IL-3, IL-6, and Epo were replated and scored 2 weeks later.

CD34+/CD38− CML cells = assay: CFC/replating assay, CML cells; format: cell-based, human
Protocol: as §1

[2] = test system: CFSE^max/CD34^+ CML cells; assay: CFSE-mediated tracking of quiescent cells, CML; format: cell-based, human
Protocol: (§2) CFSE-mediated tracking of cell division. Carboxyfluorescein diacetate succinimidyl diester (CFSE)-stained cells (CellTrace CFSE Proliferation Kit: Invitrogen) were cultured in the presence of the indicated drugs (dosed at time zero and at day three), and the cells were harvested after 3 or 6 days in culture, and stained with anti-CD34 PE, Annexin-V V450, and the viability stain 7-AAD (BD Bioscience) to determine the number of viable quiescent cells (CFSEmax/CD34^+/7-AAD− cells) and the percentage of quiescent and apoptosis-committed cells (CFSEmax/CD34+/Annexin V+/7-AAD±). Cells were sorted into dividing and quiescent populations for Western blot analysis. For assessment of mouse quiescent leukemic HSCs, Lin- cells from 8 week-induced SCLtTA/BCR-ABL1 mice were CFSE-stained and used as described above. Quiescent cells (CFSE^max/CD34^+) were reported as a fraction of the initial number of CD34^+ cells.

[3] = test system: normal CD34^+ progenitors; assay: Toxicity to normal progenitors; format: cell-based, human; conditions: at concentrations that impair Ph^+ HSC survival
S1PR1 = S1PR1 (Homo sapiens, UniProt P21453); assay: S1PR1 internalization; format: cell-based
S1PR1, sequence (P21453 whole entry, species assumed): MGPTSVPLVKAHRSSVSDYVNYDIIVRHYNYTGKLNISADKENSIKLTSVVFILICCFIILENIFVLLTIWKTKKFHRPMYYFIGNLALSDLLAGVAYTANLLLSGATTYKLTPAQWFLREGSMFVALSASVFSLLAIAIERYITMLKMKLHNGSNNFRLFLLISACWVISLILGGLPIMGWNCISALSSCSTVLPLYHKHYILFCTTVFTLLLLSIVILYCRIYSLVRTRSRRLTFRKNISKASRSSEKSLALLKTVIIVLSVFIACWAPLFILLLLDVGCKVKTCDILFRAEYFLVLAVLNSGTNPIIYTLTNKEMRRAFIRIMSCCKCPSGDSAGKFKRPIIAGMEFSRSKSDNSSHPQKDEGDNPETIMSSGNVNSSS

PP2A [4] = target: T1, PP2A (Homo sapiens, UniProt P67775); assay: PP2A phosphatase assay; format: cell-based
T1 construct: PP2Ac assays from whole cell lysates; endogenous in cells; host or cells: CD34+/CD38- and CD34+/CD38+ primary CML and normal bone-marrow cells; immunoprecipitated with Millipore PP2Ac antibody
T1 sequence (P67775 whole entry): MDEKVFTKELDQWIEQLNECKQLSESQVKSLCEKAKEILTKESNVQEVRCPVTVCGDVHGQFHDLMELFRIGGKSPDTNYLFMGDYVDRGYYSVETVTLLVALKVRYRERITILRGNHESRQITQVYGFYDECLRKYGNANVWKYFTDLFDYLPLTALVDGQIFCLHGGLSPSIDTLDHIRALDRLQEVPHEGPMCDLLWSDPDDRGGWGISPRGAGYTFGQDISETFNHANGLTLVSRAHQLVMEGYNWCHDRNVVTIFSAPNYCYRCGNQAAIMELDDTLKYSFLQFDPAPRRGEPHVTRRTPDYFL
Protocol: PP2A phosphatase assay. PP2Ac assays from whole cell lysates were carried out using the PP2Ac immunoprecipitation phosphatase assay kit (Millipore). Briefly, protein lysates (50 μg) in 100 μl of 20 mM Hepes. pH 7.0, 100 mM NaCl, 5 μg of PP2Ac antibody (Millipore), and 25 μl of Protein A-agarose were added to 400 μl of 50 mM Tris, pH 7.0, 100 mM CaCl2, and IPs were carried out at 4° C. for 2 h. IPs were used in the phosphatase reaction according to the manufacturer's protocol.

B lymphocytes = assay: B-lymphopenia induction; conditions: in vivo
β-catenin = β-catenin immunofluorescence; format: cell-based, human; conditions: CD34^+/CD38^− CML, leukemic LSK, and 32D-BCR/ABL cells
Text: Immunofluorescence and proximity ligation assay. CD34^+/CD38^− cells from CML patient samples or LSK cells derived from induced leukemic mice were sorted, treated in liquid culture with the indicated drugs and cytospun onto glass slides. Slides were fixed in 3.7% formaldehyde, penneabilized with 0.05% Triton X-100, and stained with an Anti-®-catenin primary antibody (Cell signaling), a secondary goat F(ab′) anti-rabbit conjugated to Alexa Fluor 647, and the nuclear stain DAPI (Invitrogen); slides were mounted with Slowfade antifade reagent (Invitrogen). Microphotographs were obtained with a Zeiss LSM 510 confocal laser-scanning microscope with C-Apochromat 63/1.2 W objective. A minimum of three fields for each slide were acquired. For the Proximity Ligation Assay (PLA) CD34+/CD38− CML cells were treated, fixed, and permeabilized as described above. The slides were then simultaneously stained with a mix of mouse anti-PP2A (Millipore) and rabbit anti-SET (Globozyme) antibodies. The PLA procedure (Duolink; Olink Bioscience) was performed according to manufacturer instructions. An average of 20 z-stack ([…]) were captured with a Zeiss LSM 510 confocal laser-scanning microscope with C-Apochromat 63/1.2 W objective; at least three fields/slide were acquired. Three-dimensional projections were generated and positive signals/cell were calculated by ImageJ software (NIH).

[5] = test system: CML cells (CFSE^max/CD34^+, CD34^+/CD38^−, CD34^+); assay: Annexin-V/7-AAD apoptosis staining; format: cell-based, human; conditions: for effect on FTY720-induced apoptosis of quiescent cells: CD34^+ CML cells, GSK-3β inhibitor with FTY720
Protocol: as §2

PP2A [6] = target: T1, PP2A; conditions: Roberts et al., Cancer Res 2010; cited from earlier work

For Cc1cnc(Nc2ccc(OCCN3CCCC3)cc2)nc1Nc1cccc(S(=O)(=O)NC(C)(C)C)c1 [TG101348], the “β-catenin transcriptional activity (LEF/TCF luciferase)” value [1] was “markedly impaired”, the “inhibition of LTC-ICs” value (CML cells) was roughly 80% and the “reduction in replating efficiency” value (CD34+/CD38− CML cells) was roughly 75%. For the same compound, the “decrease in CFSE^max (quiescent) CML HSCs” value ([2]; CFSE-labeled CD34^+ CML cells, FTY720 at 2.5 μM) was 50% and the “toxicity to normal CD34^+ progenitors” value [3] was “toxicity of TG101348 to normal CD34^+ progenitors”.
In the case of CCCC(N)(CO)CCc1ccc(OCCCCCC(C)C)cc1 (stereo not shown) [OSU-2S], the S1PR1 internalization (S1PR1) is reported as “without triggering S1PR1 internalization”, the PP2A activation (PP2A [4]) is reported as “activated PP2A” and the B-lymphopenia (B lymphocytes) is reported as “without triggering S1PR1 internalization or inducing B-lymphopenia”. The “effect on CML CFSE^max cells” value ([2]; CML n=9) was “significantly reduced”.
For Cc1ccc(NC(=O)c2ccc(CN3CCN(C)CC3)cc2)cc1Nc1nccc(-c2cccnc2)n1 [imatinib, imatinib mesylate], the β-catenin degradation (β-catenin) was “but not imatinib (n=3) induced β-catenin degradation”.
In the case of CCCCCCCCc1ccc(CCC(N)(CO)COP(=O)(O)O)cc1 (stereo not shown) [FTY-P], the “apoptosis of quiescent/HSC-enriched CML cells” value ([5]; CFSE^max/CD34^+ or CD34^+/CD38^− CML cells) is given as “failed to induce apoptosis” and the PP2A activity induction (PP2A [6]) is given as “did not induce PP2A activity”.
For C=C1[C@@H](O)[C@@H]2O[C@]3(CC[C@H](/C=C/[C@@H](C)[C@@H]4CC(C)=C[C@@]5(O[C@H](C[C@@](C)(O)C(=O)O)CC[C@H]5O)O4)O3)CC[C@H]2O[C@@H]1[C@@H](O)C[C@H](C)[C@H]1O[C@@]2(CCCCO2)CC[C@H]1C [okadaic acid], the “effect on FTY720-induced decrease of CFSE^max HSCs” value ([2]; 0.25 nM okadaic acid with FTY720) was “antagonized”.
With C=C[C@@]1(C)CC(=O)[C@@H]2[C@@]3(C)CCCC(C)(C)[C@@H]3[C@H](O)[C@H](OC(C)=O)[C@@]2(C)O1 [1,9-dideoxy-forskolin] the “β-catenin transcriptional activity (LEF/TCF luciferase)” value [1] was “markedly impaired”.
In the case of [Cl-].[Li+] [LiCl, lithium chloride], the “effect on FTY720-induced apoptosis of quiescent cells” value [5] is reported as “abrogated FTY720-induced apoptosis”.
For Cn1cc(C2=C(c3ccc(Cl)cc3Cl)C(=O)NC2=O)c2ccccc21 [SB216763], the “effect on FTY720-induced apoptosis of quiescent cells” value [5] was “abrogated FTY720-induced apoptosis”.
